From PubChem BioAssay (NCI)
“And” between values parts separate entries of the source, which are not always exact repeats. Equal entries are not always repeated.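 Briefly, cells in 96-well plates were exposed to five compound concentrations for 48 h, and endpoints were estimated by linear interpolation. TGI: total growth inhibition.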

Columns and labels:
Assay in all cases: DTP human tumour cell line panel, 48 h
BT-549 breast = test system: BT-549 breast
HCT-15 colon = test system: HCT-15 colon
HOP-62 NSCLC = test system: HOP-62 NSCLC
M14 melanoma = test system: M14 melanoma
MCF7 breast = test system: MCF7 breast
MOLT-4 leukemia = test system: MOLT-4 leukemia
OVCAR-4 ovarian = test system: OVCAR-4 ovarian
RPMI-8226 leukemia = test system: RPMI-8226 leukemia
SF-295 CNS = test system: SF-295 CNS
U251 CNS = test system: U251 CNS
HL-60(TB) leukemia = test system: HL-60(TB) leukemia
SK-OV-3 ovarian = test system: SK-OV-3 ovarian

SMILES | TGI (BT-549 breast) [µM] | TGI (HCT-15 colon) | TGI (HOP-62 NSCLC) | TGI (M14 melanoma) [µM] | TGI (MCF7 breast) [µM] | TGI (MOLT-4 leukemia) | TGI (OVCAR-4 ovarian) | TGI (RPMI-8226 leukemia) [µM] | TGI (SF-295 CNS) | TGI (U251 CNS) | TGI (HL-60(TB) leukemia) [µM] | TGI (SK-OV-3 ovarian) [µM]
O=C(N[C@@H](Cc1ccccc1)B(O)O)[C@H](Cc1cccc2ccccc12)NC(=O)N1CCOCC1 | 0.00335 | 0.61 µM and 0.405 µM | 0.0316 µM and 0.0488 µM | 0.00405 | 0.352 | 0.00366 µM and 0.0107 µM | 0.0301 µM and 0.204 µM | 0.00414 | 0.0304 µM and 0.0239 µM | 0.132 µM and 0.174 µM |  | 
Cc1ccc2c(=O)c(C(=O)NNC(=S)NC3CCCCC3)c[nH]c2n1 | > 100 | > 100 µM | > 100 µM | > 100 | > 100 | > 100 µM | > 100 µM | > 100 | > 100 µM | > 100 µM | > 100 | 
C(#C[C@@]12CCC[C@@H]1N(Cc1ccccc1)CO2)c1ccc2c(c1)OCO2 | > 100 | > 100 µM | > 100 µM | > 100 | > 100 | > 100 µM | > 100 µM | > 100 | > 100 µM | > 100 µM |  | > 100
Clc1nc(Nc2nc3ccccc3[nH]2)nc(Cl)c1-c1ccccc1 | 42.5 | 34.2 µM |  | 98 |  | > 100 µM | 32.8 µM | > 100 | 46.8 µM | 32.7 µM | > 100 | 50.5
CC(C)C[C@H](NC(=O)CCc1cccc2ccccc12)B(O)O | 2.15 | 9.01 µM | 14.3 µM | 3.72 | > 52 | 3.86 µM | 29 µM | 3.95 | 20.2 µM | 19.6 µM |  | > 86.4
Brc1ccc(C2CC3(c4ccccc4)ON=C(c4ccccc4)N3c3ccccc3S2)cc1 (configuration not stated) | > 100 | > 100 µM | > 100 µM | > 100 | > 100 | > 100 µM | > 100 µM |  | > 100 µM | > 100 µM | > 100 | > 100
Nc1nc(Cc2ccccc2)nc(Cc2ccccc2)c1-c1ccccc1 | 50.9 | 84.3 µM | 54 µM | > 100 |  | 59.7 µM | > 100 µM |  | > 100 µM | 37.1 µM | 60.5 | 
C[C@H](CO)C1=CC(C#C[Si](C)(C)C)N(C(=O)Oc2ccccc2)c2ccccc21 (some centres not stated) |  | 9.71 µM | 19.4 µM | 22 |  | 44 µM | 21.8 µM | > 100 | 14.3 µM | 28 µM | 47.2 | 31.1
COc1ccc(NC(=O)CC(=O)N2N=C(C)C(N=Nc3ccc(C(=O)O)cc3)C2=O)cc1 (configuration not stated) |  | > 100 µM | > 100 µM | > 100 | > 100 |  | > 100 µM |  | > 100 µM | > 100 µM | > 100 | 
N#CC1=C(S)N(C2OC(CO)C(O)C(O)C2O)C(c2ccccc2)=CC1c1cccs1 (configuration not stated) | 30.4 | > 100 µM | 57 µM | > 100 | 54.9 | > 100 µM | > 100 µM | > 100 | 34.8 µM | 51.4 µM | > 100 | 
